Test system: transient lower esophageal sphincter relaxations (TLESR)
Assay: Effect of GABAB receptor agonists on TLESR in dog after nutrient infusion and air insufflation
Assay type: in vivo
Conditions: for TLESR % of control at 90 min / TLESR % of control at 45 min: mean ± SEM; for TLESR % of control at 45 min: first 45 min
Experimental: Adult Labrador retriever dogs of both sexes (5 males, 3 females) weighing 20-30 kg were used. A cervical esophagostomy was formed to allow intubation. After a recovery period, the dogs were used in control experiments until a stable and reliable control response had been achieved. The dogs were used in other experiments before they were given the GABAB receptor agonists, but they were always allowed a wash-out period of at least two days during which time no drugs were administered. Every fourth experiment on each dog was a control experiment to ensure stability and reproducibility of the results.
The experiments were started at about 8 a.m. at which time the animals had been fasting for approximately 17 hrs. The dog was placed in a Pavlov stand to which it had been accustomed previously. A thin silicone catheter with a distal opening was introduced retrogradely through the esophagostomy into the pharynx to record swallowing. The catheter was perfused with air at approximately 2 ml/min. A multilumen assembly was positioned so that pressures could be recorded in the proximal stomach, LES and at four sites in the distal esophagus. The assembly was fitted with a 6 cm long sleeve to measure LES pressure reliably. Gastric and LES channels were perfused with distilled degassed water at 0.45 ml/min and esophageal channels at 0.1 ml/min. A low-compliance pneumohydraulic pump was used to achieve optimal perfusion conditions. Intraluminal pressures were measured with external pressure transducers. The signals were amplified and acquired using LabWindows/CVI software (version 3.1). Pressure calibrations were done at 0 and 100 mm Hg with the multilumen assemblies placed at a level slightly below the pressure transducers. The dog was positioned so that the average intragastric (i.g.) pressure approximated 0 mm Hg. An antimony pH-electrode was positioned 3 cm orad to the upper margin of the LES, and the signals were acquired as described above. Analysis of acquired signals was made using LabWindows software.
Baseline measurement was done for at least 10 min, and then vehicle (0.9% NaCl; 0.5 ml/kg) or a GABAB receptor agonist was given i.v. over 2 min. Ten min after the completion of the administration, nutrient was infused i.g. via the multilumen assembly at a rate of 100 ml/min (30 ml/kg). GABA was given as a continuous i.v. infusion which commenced 10 min before nutrient administration; and R, S,-baclofen was in some cases given intragastrically 30 min before nutrient. The nutrient contained 10% peptone (w/v), 5% Intralipid (v/v) and 5% D-glucose (w/v) and was acidified to pH 3.0 with HCl. Immediately after the infusion, air was insufflated at 40 ml/min to make up a total time of 90 min starting from the commencement of nutrient infusion. The dog was then extubated and a baseline measurement was done to ensure that no drift had occurred.
A TLESR was identified by the following criteria; The difference between LES and i.g. pressures was less than 2 mm Hg, the duration was more than 0.5 s and the relaxation was not triggered by primary peristalsis (i.e. by a pharyngeal signal). The rate of pressure drop was more than 10 mm Hg/s. Most, but not all, TLESR could also be detected aurally by a characteristic noise at the esophagostomy (i.e. belching). The total number of TLESR was calculated for the first 45 min period and entire experiment (90 min). The effect of GABAB receptor agonists was expressed relative to individual control data (n≧5). Each agonist was tested in at least two different dogs.

[1] = 1.5 mg/kg intragastric admin. 30 min before nutrient
[2] = 1.8 mg/kg as intravenous infusion over 100 min
[3] = 5.4 mg/kg as intravenous infusion over 100 min

## NCC(CC(=O)O)c1ccc(Cl)cc1 (racemic) [R, S-baclofen, 4-amino-3-(4-chlorophenyl)butanoic acid]
0.3 mg/kg intravenously
  TLESR % of control at 90 min: 66 ± 8 % of control
  TLESR % of control at 45 min: 47 ± 6 % of control
[1]
  TLESR % of control at 90 min: 54 ± 12 % of control
  TLESR % of control at 45 min: 12 ± 6 % of control
1.5 mg/kg intravenously
  TLESR % of control at 90 min: 43 ± 19 % of control
  TLESR % of control at 45 min: 11 ± 6 % of control
High R,S-baclofen dose, disappeared approximately one hour after the administration
  behavioural side effects: some sedation

## CP(=O)(O)C[C@@H](O)CN [(3-amino-2-(S)-hydroxypropyl)methylphosphinic acid]
0.03 mg/kg intravenously
  TLESR % of control at 90 min: 65 ± 10 % of control
  TLESR % of control at 45 min: 53 ± 7 % of control
0.3 mg/kg intravenously
  TLESR % of control at 90 min: 38 ± 6 % of control
  TLESR % of control at 45 min: 0 ± 0 % of control

## CP(=O)(O)CCCN [(3-aminopropyl)methylphosphinic acid]
0.003 mg/kg intravenously
  TLESR % of control at 90 min: 76 ± 5 % of control
  TLESR % of control at 45 min: 57 ± 12 % of control
0.01 mg/kg intravenously
  TLESR % of control at 90 min: 39 ± 7 % of control
  TLESR % of control at 45 min: 32 ± 8 % of control
0.03 mg/kg intravenously
  TLESR % of control at 90 min: 50 ± 17 % of control
  TLESR % of control at 45 min: 25 ± 4 % of control
0.1 mg/kg intravenously
  TLESR % of control at 90 min: 33 ± 9 % of control
  TLESR % of control at 45 min: 5 ± 5 % of control

## NCCCC(=O)O [GABA, 4-aminobutanoic acid]
[2]
  TLESR % of control at 90 min: 61 ± 3 % of control
  TLESR % of control at 45 min: 62 ± 2 % of control
[3]
  TLESR % of control at 90 min: 54 ± 10 % of control
  TLESR % of control at 45 min: 57 ± 6 % of control

## NC[C@H](CC(=O)O)c1ccc(Cl)cc1 [R-baclofen]
0.3 mg/kg intravenously
  TLESR % of control at 90 min: 40 ± 11 % of control
  TLESR % of control at 45 min: 36 ± 10 % of control

## NC[C@@H](CC(=O)O)c1ccc(Cl)cc1 [S-baclofen]
1.5 mg/kg intravenously
  TLESR % of control at 90 min: 92 ± 10 % of control
  TLESR % of control at 45 min: 76 ± 10 % of control

Source: patent US6664069B1, “Use of GABAB receptor agonists in the screening of compounds which are reflux inhibitors” (AstraZeneca AB, priority 1996, dated 2003)
